From US4582700A, “Products and processes” (Mallinckrodt, Inc., priority 1983, dated 1986) come the findings set out here.

This data set in a line: Comparative 5 minute biodistribution of A-E and 201TlCl in rats. The data set is classed as in vivo, female Sprague-Dawley rats. The following applies: rat, i.v. 25 uCi/kg. The method, then:
The following pharmacological studies were conducted on Complex (A), prepared by the method of Example 1; Complex (B), prepared by the method of Example 2; Complex (C) prepared by the method of Example 4; Complex (D) prepared by the method of Example 6; and Complex (E) prepared by the method of Example 7. Where indicated, Thallium-201 was used for comparative purposes.
The biodistribution of the experimental ^99m Tc(I) complexes in rats was compared with Thallium-201, currently the radionuclide of choice for myocardial perfusion imaging. Complex A was supplied as a vacuum-evaporated preparation and reconstituted with 0.9% Sodium Chloride, Injection, U.S.P. The ^99m Tc(I) complexes and ^201 TlCl solutions were diluted to concentrations of 12.5 uCi/ml with 0.9% Sodium Chloride, Injection, U.S.P. for dosing. Groups of 4-12 female Sprague-Dawley rats with body weights ranging from 180-231 g received single intraveneous injections of 25uCi/kg of Complex A, Complex B, Complex C, Complex D, Complex E, or ^201 TlCl.
Animals were sacrificed 5 minutes after dosing and radioactivity concentrations were determined by gamma scintillation spectroscopy in blood, heart, liver, lungs, kidney and skeletal muscle. As a measurement of selectivity of myocardial uptake, heart/blood, heart/liver and heart/lung tissue ratios were determined.

The structures appear in SMILES notation.

On to `[Cl][201Tl]` [^201 TlCl], for which the “Mean % Dose/g or ml, Blood” value (5 min, blood) is 0.26 % Dose/g or ml. Moreover, the “Mean % Dose/g or ml, Heart” value (5 min, heart) is recorded as 6.35 % Dose/g or ml. In addition, the “Mean % Dose/g or ml, Kidney” value (5 min, kidney) is listed as 6.53 % Dose/g or ml. In addition, the “Mean % Dose/g or ml, Liver” value (5 min, liver) is 1.01 % Dose/g or ml. For the setting “5 min, lung”, the “Mean % Dose/g or ml, Lung” value is 4.69 % Dose/g or ml. For the setting “5 min, skeletal muscle”, the “Mean % Dose/g or ml, Muscle” value is 0.82 % Dose/g or ml. Under “5 min after dosing”, the “Mean Tissue Ratio Heart/Blood” value was determined as 24.31, the “Mean Tissue Ratio Heart/Liver” value was 6.31 and the “Mean Tissue Ratio Heart/Lung” value was determined as 1.35.
